Where two headings read alike, the source gives them in different places.
Tests used:
[1] = test system: SARS-CoV-2 (hCoV-19/USA-WA1/2020) in Calu-3 cells; test: microbe, parasite or virus in culture; format: cell-based; details: for EC50: read-out: Calu-3 SARS-CoV-2 EC50; for EC90: read-out: Calu-3 SARS-CoV-2 EC90
[2] = test system: SARS-CoV-2 (hCoV-19/USA-WA1/2020) in Vero CCL-81 cells; test: microbe, parasite or virus in culture; format: cell-based; details: for EC50: read-out: Vero CCL-81 SARS-CoV-2 EC50; for EC90: read-out: Vero CCL-81 SARS-CoV-2 EC90
[3] = test system: COVID-19 / SARS-CoV-2 infection; details: cited from earlier work
[4] = cited from earlier work
[5] = MTS cytotoxicity assay, PBM cells; details: human
[6] = MTS cytotoxicity assay, CEM cells; details: human
[7] = MTS cytotoxicity assay, Huh-7 cells; details: human
[8] = MTS cytotoxicity assay, Calu-3 cells; details: human
[9] = MTS cytotoxicity assay, Caco-2 cells; details: human
[10] = test system: SARS-CoV-2 (hCoV-19/USA-WA1/2020) in Caco-2 cells; test: microbe, parasite or virus in culture; details: Severe acute respiratory syndrome coronavirus 2, Caco-2, 72 h; for EC50: read-out: Caco-2 SARS-CoV-2 EC50; for EC90: read-out: Caco-2 SARS-CoV-2 EC90
[11] = MTS cytotoxicity assay, Vero CCL-81 cells; details: African green monkey
[12] = Peak plasma concentration
[13] = following an IV infusion of remdesivir over 2 h, in vivo; cited from earlier work
[14] = test system: SARS-CoV-2 (hCoV-19/USA-WA1/2020) in Caco-2 cells
[15] = human, in vivo
in vitro [16] = details: human
in vitro [17] = details: human, Caco-2
in vitro [18] = details: African green monkey
in vitro [19] = details: human; remark: listed apart in the source
in vitro [20] = details: human; remark: listed apart in the source
in vitro [21] = details: human; remark: listed apart in the source
[22] = test system: primary human peripheral blood mononuclear cells (PBM); test: MTS cytotoxicity assay, PBM cells; details: read-out: PBM CC50; 5 days
CCRF-CEM cells [23] = test: MTS cytotoxicity assay, CEM cells; details: read-out: CEM CC50; 4 days
Huh-7 cells [24] = test: MTS cytotoxicity assay, Huh-7 cells; details: read-out: Huh7 CC50; 4 days
[25] = human astrocytes and hBTEC; cited from earlier work
[26] = primary hepatocytes; cited from earlier work
[27] = test system: primary human peripheral blood mononuclear cells (PBM)
CCRF-CEM cells [28] = test system: CCRF-CEM cells
Huh-7 cells [29] = test system: Huh-7 cells
[30] = cited from earlier work; remark: listed apart in the source
[31] = African Green monkeys, oral; cited from earlier work
[32] = Severe acute respiratory syndrome coronavirus 2, Calu-3, MOI 0.01, 72 h, 2% FBS
[33] = Severe acute respiratory syndrome coronavirus 2, Table 1 drugs, MOI 0.1, 48 h, 2% FBS
[34] = Table 1, ref column Refs of Table 1
[35] = Severe acute respiratory syndrome coronavirus 2, Calu-3, 72 h
[36] = Severe acute respiratory syndrome coronavirus 2, 48 h

Molecule: Cc1cccc(Nc2ccccc2C(=O)O)c1C [Mefenamic acid]
- EC50 [1, 32]: > 100 µM
- EC50 [2, 33]: 87.6 µM
- EC90 [2, 33]: > 100 µM
- higher probability of achieving patient-acceptable symptoms on day 8 ([3]; with standard medical care versus placebo plus standard care, 38 ambulatory individuals): about 16 fold
- Fun (unbound fraction of drug in plasma) [4, 34]: 0.1
- CC50 at 5 days [5]: > 100 µM
- CC50 at 4 days [6]: > 100 µM
- CC50 at 4 days [7]: > 100 µM
- CC50 at 3 days [8]: > 100 µM
- CC50 at 3 days [9]: > 100 µM
- EC50 [10]: > 100 µM
- CC50 at 3 days [11]: > 100 µM
- Cmax (μM) {unbound} ([12]; human, in vivo): 1.58 µM

Molecule: N#C[C@@]1(c2ccc3c(N)ncnn23)O[C@H](COP(=O)(O)OP(=O)(O)OP(=O)(O)O)[C@@H](O)[C@H]1O [GS-441524-TP]
- t1/2 of GS-441524-TP in human blood mononuclear cells [13]: 36 to 43 h

Molecule: CC(c1cc2ccccc2s1)N(O)C(N)=O (stereo not shown) [Zileuton]
- EC50 [1, 32]: > 100 µM
- EC50 [2, 33]: 6.7 µM
- EC90 [2, 33]: 35.8 µM
- Caco-2 Unbound Cmax/EC50 ([14]; Caco-2): 0.003
- Cmax (μM) {unbound} [15]: 0.16 µM
- CC50 at 3 days (in vitro [16]): 46.7 µM
- CC50 at 3 days (in vitro [17]): > 100 µM
- CC50 at 3 days (in vitro [18]): > 100 µM
- CC50 at 5 days (in vitro [19]): > 100 µM
- CC50 at 4 days (in vitro [20]): > 100 µM
- CC50 at 4 days (in vitro [21]): > 100 µM
- Fun (unbound fraction of drug in plasma) [4, 34]: 0.07
- EC50 [10]: > 100 µM

Molecule: COCCCC/C(=N\OCCN)c1ccc(C(F)(F)F)cc1 [Fluvoxamine (maleate)]
- EC50 [1, 32]: > 100 µM
- EC50 [2, 33]: > 100 µM
- anti-SARS-CoV-2 activity (in words), concentrations up to 100 μM ([2]; Vero CCL-81 cells, up to 100 μM): inactive
- Caco-2 Unbound Cmax/EC50 ([14]; Cmax × Fun/EC50): 0.0017
- Fun (unbound fraction of drug in plasma) [4, 34]: 0.23
- CC50 at 5 days [5]: 35.4 µM
- CC50 at 4 days ([6]; CEM CC50, 4 days): 20 µM
- CC50 at 4 days [7]: 36.7 µM
- CC50 at 3 days [8]: > 100 µM
- CC50 at 3 days [9]: > 100 µM
- EC50 [10]: 17.9 µM
- EC90 [10]: 47.5 µM
- CC50 at 3 days [11]: 35.5 µM
- Cmax (μM) {unbound} ([12]; human, in vivo): 0.003 µM

Molecule: NC(=O)c1nc(F)c[nH]c1=O [Favipiravir]
- EC50 [1, 32]: > 300 µM
- EC50 [2, 33]: 90.6 µM
- EC90 [2, 33]: 234 µM
- Caco-2 Unbound Cmax/EC50 ([14]; Caco-2): 0.74
- Cmax (μM) {unbound} [15]: 193 µM
- CC50 at 3 days (in vitro [16]): > 300 µM
- CC50 at 3 days (in vitro [17]): > 300 µM
- CC50 at 3 days (in vitro [18]): > 100 µM
- CC50 at 5 days (in vitro [19]): > 100 µM
- CC50 at 4 days (in vitro [20]): > 100 µM
- CC50 at 4 days (in vitro [21]): > 100 µM
- EC50 [10]: 256 µM
- EC90 [10]: > 300 µM

Molecule: Iota-Carrageenan
- EC90 [1]: 1.9 µM
- EC90 [2]: 1.6 µM
- EC90 ([14]; Caco-2): 93.3 µM
- CC50 (Calu-3 cells): > 100 µM
- CC50 (Caco-2 cells): > 100 µM
- absolute risk reduction ([3]; topical nasal spray, 300 hospital personnel): 4%
- CC50 [22]: > 100 µM
- CC50 (CCRF-CEM cells [23]): 95.9 µM
- CC50 (Huh-7 cells [24]): > 100 µM

Molecule: O=c1nc(NO)ccn1[C@@H]1O[C@H](COP(=O)(O)OP(=O)(O)OP(=O)(O)O)[C@@H](O)[C@H]1O [NTP of NHC]
- cellular t1/2 [25]: 4 to 5 h
- cellular t1/2 [26]: 0.4 to 1.1 h

Molecule: Ivermectin
- EC50 [1]: 6.2 µM
- EC90 [1]: 9.3 µM
- EC50 [2]: 2.1 µM
- EC90 [2]: 4.5 µM
- Caco-2 Unbound Cmax/EC50 ([14]; Caco-2): 0.005
- EC90 ([14]; Caco-2): 8.9 µM
- EC50 ([14]; read-out: Caco-2 SARS-CoV-2 EC50): 4.5 µM
- CC50 (Calu-3 cells): 17.5 µM
- CC50 (Caco-2 cells): 5.8 µM
- CC50 (Vero CCL-81 cells): 35.2 µM
- Vero CC50 {Unbound} (Vero CCL-81 cells): 35.2 {31.9} μM
- PBM CC50 {Unbound} [27]: 29.2 {23.8} μM
- CEM CC50 {Unbound} (CCRF-CEM cells [28]): 12 {9.5} μM
- Huh7 CC50 {Unbound} (Huh-7 cells [29]): 5.6 {5.1} μM
- Fun (unbound fraction of drug in plasma) [4, 34]: 0.07
- CC50 [22]: 29.2 µM
- CC50 (CCRF-CEM cells [23]): 12 µM
- CC50 (Huh-7 cells [24]): 5.6 µM

Molecule: O=c1c2ccccc2[se]n1-c1ccccc1 [Ebselen]
- EC50 [1, 35]: 6.5 µM
- EC90 [1, 35]: > 10 µM
- EC50 [2, 36]: 1.1 µM
- EC90 [2, 36]: 2.7 µM
- Vero CC50 {Unbound} (Vero CCL-81 cells; African green monkey, 3 days): 20.3 µM
- PBM CC50 {Unbound} ([27]; human, 5 days): 75.5 µM
- CEM CC50 {Unbound} (CCRF-CEM cells [28]; human, 4 days): 42.3 µM
- Huh7 CC50 {Unbound} (Huh-7 cells [29]; human, 4 days): 76.3 µM
- Cmax (μM) {unbound} [15]: 0.013 µM
- CC50 at 3 days (in vitro [16]): > 100 µM
- CC50 at 3 days (in vitro [17]): > 100 µM
- CC50 at 3 days (in vitro [18]): 22.4 µM
- CC50 at 5 days (in vitro [19]): 93.2 µM
- Fun (unbound fraction of drug in plasma) ([4]; plasma): 0.05
- EC50 [10]: > 100 µM

Molecule: CCC(CC)COC(=O)[C@H](C)N[P@](=O)(OC[C@H]1O[C@@](C#N)(c2ccc3c(N)ncnn23)[C@H](O)[C@@H]1O)Oc1ccccc1 [Remdesivir]
- EC50 [1, 32]: 0.2 µM
- EC90 [1, 32]: 0.7 µM
- EC50 [2, 33]: 3.2 µM
- EC90 [2, 33]: 4.7 µM
- Caco-2 Unbound Cmax/EC50 ([14]; Caco-2): 22
- shortening of hospitalization duration ([3]; IV remdesivir, hospitalized patients with COVID-19, ACTT-1 trial): 5 days
- reduction in hospitalizations ([3]; IV, 3-day course, high-risk non-hospitalized patients, PINETREE trial): 87%
- CC50 (in vitro [17]): > 100 µM
- CC50 (in vitro [18]): > 100 µM
- Fun (unbound fraction of drug in plasma) [4, 34]: 0.12
- plasma t1/2 ([30]; remdesivir following IV infusion): ~ 1 h
- fraction of orally administered drug entering the systemic circulation intact [31]: < 1%
- EC50 [10]: 0.02 µM
- EC90 [10]: 0.1 µM
- Cmax (μM) {unbound} ([12]; Table 1, Cmax × Fun): 0.44 µM

Molecule: O=c1nc(NO)ccn1[C@@H]1O[C@H](CO)[C@@H](O)[C@H]1O [NHC, β-D-N4-hydroxycytidine]
- CC50 (Calu-3 cells): > 100 µM
- CC50 (Caco-2 cells): > 100 µM
- CC50 (Vero CCL-81 cells): 18.8 µM
- CC50 [27]: 59.8 µM
- CC50 (Huh-7 cells [29]): 59.1 µM
- plasma t1/2 ([30]; in vivo, iv): 3.3 h

Molecule: COC(=O)N[C@H](C(=O)N1CCC[C@H]1c1nc(-c2ccc(-c3ccc(-c4c[nH]c([C@@H]5CCCN5C(=O)[C@@H](NC(=O)OC)C(C)C)n4)cc3)cc2)c[nH]1)C(C)C [Daclatasvir]
- EC50 [1, 32]: > 100 µM
- EC50 [2, 33]: 0.7 µM
- EC90 [2, 33]: 3.5 µM
- Caco-2 Unbound Cmax/EC50 ([14]; Caco-2): 0.0005
- Vero CC50 {Unbound} (Vero CCL-81 cells; African green monkey): 50.6 {45.6} μM
- PBM CC50 {Unbound} ([27]; human): 36.4 {29.2} μM
- CEM CC50 {Unbound} (CCRF-CEM cells [28]; human): 26.2 {23.6} μM
- Huh7 CC50 {Unbound} (Huh-7 cells [29]; human): 53.6 {48.3} μM
- CC50 (in vitro [17]): 67.6 µM
- CC50 (in vitro [18]): 50.6 µM
- Fun (unbound fraction of drug in plasma) [4, 34]: 0.01
- EC50 [10]: 44.7 µM
- EC90 [10]: 89.4 µM
- Cmax (μM) {unbound} ([12]; Table 1, Cmax × Fun): 0.02 µM

Molecule: CC(C)(C)[C@H](NC(=O)C(F)(F)F)C(=O)N1C[C@H]2[C@@H]([C@H]1C(=O)N[C@H](C#N)C[C@@H]1CCNC1=O)C2(C)C [Nirmatrelvir]
- EC50 [1, 35]: 1.8 µM
- EC90 [1, 35]: 8.8 µM
- EC50 [2, 36]: 3.7 µM
- EC90 [2, 36]: 5.6 µM
- Caco-2 Unbound Cmax/EC50 ([14]; Caco-2): 6.8
- CC50 (in vitro [16]): > 100 µM
- CC50 (in vitro [17]): > 100 µM
- CC50 (in vitro [18]): > 100 µM
- CC50 (in vitro [19]): > 100 µM
- CC50 (in vitro [20]; CEM CC50, 4 days): > 100 µM
- CC50 (in vitro [21]): > 100 µM
- Fun (unbound fraction of drug in plasma) [4, 34]: 0.31
- EC50 [10]: 0.1 µM
- EC90 [10]: 0.3 µM
- Cmax (μM) {unbound} ([12]; Table 1, Cmax × Fun): 2.13 µM
